Data set [1] has as its system Escherichia coli. Nature of the data set: Antibacterial activity against Escherichia coli DH5[alpha] assessed as inhibition of exponential phase of bacterial growth at 200 uM measured every 10 mins for 16 hrs by FLUOstar Optima plate reader analysis relative to control. The format is functional. The conditions noted are these: read-out: GI.
The subject of the next data set is BL21-DE3. The data set can be described thus: Inhibition of Bacillus subtilis C-terminal GST-tagged RNAP beta'-CH expressed in Escherichia coli BL21 (DE3) cells binding interaction with Escherichia coli sigma-70/Bacillus subtilis full length SigmaA2.2 expressed in Escherichia coli C41 (DE3) cells using TMB as substrate at 15 uM preincubated for 1 hr followed by substrate addition by ELISA relative to control. A general note: In an ELISA, binding on a coated surface is turned into a signal by an enzyme label.

Data set [2] in a line: Solubility of compound in Luria-Bertani medium at 200 uM. The format is physicochemical.
In data set [3] the test system is Bacillus subtilis. The data set can be described thus: Antibacterial activity against Bacillus subtilis 168 assessed as inhibition of exponential phase of bacterial growth at 200 uM measured every 10 mins for 16 hrs by FLUOstar Optima plate reader analysis relative to control. The conditions noted are these: read-out: GI. The format is functional.
The subject of data set [4] is Bacillus subtilis. The data set can be described thus: Antibacterial activity against Bacillus subtilis 168 assessed as growth inhibition at 200 uM measured every 10 mins for 16 hrs by FLUOstar Optima plate reader analysis relative to control. The class given is functional. The conditions noted are these: for inhibition of growth at 200 µM: read-out: GI.
Data set [5] has as its system Escherichia coli. The data set can be described thus: Antibacterial activity against Escherichia coli DH5[alpha] assessed as growth inhibition at 200 uM measured every 10 mins for 16 hrs by FLUOstar Optima plate reader analysis relative to control. The class given is functional. The conditions noted are these: for inhibition of growth at 200 µM: read-out: GI.

Data on ten compounds can be found in ChEMBL document CHEMBL3758170, “From indole to pyrrole, furan, thiophene and pyridine: Search for novel small molecule inhibitors of bacterial transcription initiation complex formation” (Bioorg Med Chem, 2016).

The source made the active and inactive calls. The rule behind the calls is not given here.

As for `O=C(N/N=C/c1cc(Br)cs1)c1ccc[nH]1`, the figures for the inhibition of growth at 200 µM in the data set with Escherichia coli [1] and with Bacillus subtilis [3] were 51% and 73%, respectively. The same compound yielded an inhibition with BL21-DE3 of 27%. The solubility result in data set [2] is “soluble”.

Take `O=C(N/N=C/c1cccs1)c1ccc[nH]1`: the inhibition of growth at 200 µM in the data set on Escherichia coli [1] was 26%. Moreover, in the data set with Bacillus subtilis [4], the “growth inhibition (GI)” value was “inactive”. This compound displayed an inhibition in the data set with BL21-DE3 of 20%. Further, the solubility result in data set [2] was “soluble”.

Consider `O=C(N/N=C/c1cccs1)c1cccs1`, for which the inhibition of growth at 200 µM with Escherichia coli [1] was 56%. Moreover, the “growth inhibition (GI)” value in the data set on Bacillus subtilis [4] was “inactive”. For the same compound, the inhibition in the data set with BL21-DE3 is 27%.

Turning to `COc1cc(OC)c2c(-c3ccc(Cl)cc3)c[nH]c2c1C(=O)NNC(=O)c1ccnc(Br)c1`, the inhibition with BL21-DE3 amounted to 24%. Also, in data set [2], the solubility result was “soluble”. Further, the “growth inhibition (GI)” value in the data set on Escherichia coli [5] is “inactive”. Moreover, the inhibition of growth at 200 µM with Bacillus subtilis [3] was 25%.

In the data set with BL21-DE3, `O=C(N/N=C/c1cccs1)c1ccnc(Cl)c1` showed an inhibition of 30%. For the same compound, in data set [2], the solubility result is “soluble”. In addition, the inhibition of growth at 200 µM amounted to 30% in the data set with Escherichia coli [5] and 29% in the data set with Bacillus subtilis [3].

For the compound `O=C(N/N=C/c1ccco1)c1cccs1`, the inhibition of growth at 200 µM was 50% in the data set with Escherichia coli [1] and 4% in the data set with Bacillus subtilis [4]. The compound further gave an inhibition in the data set with BL21-DE3 of 18%. In data set [2], the solubility entry is given as “soluble”.

As for `COc1cc(OC)c2c(-c3ccc(Cl)cc3)c[nH]c2c1C(=O)NNC(=O)c1ccncc1Br`, the results for the inhibition of growth at 200 µM with Escherichia coli [1] and with Bacillus subtilis [3] were 47% and 74%, respectively. This compound came in with an inhibition in the data set on BL21-DE3 of 11%. The solubility entry in data set [2] is “soluble”.

On to `COc1cc(OC)c2c(-c3ccc(Cl)cc3)c[nH]c2c1C(=O)N/N=C/c1ccco1`, for which the figures for the inhibition of growth at 200 µM with Escherichia coli [1] and in the data set with Bacillus subtilis [4] were 37% and 7%, respectively. In addition, the inhibition in the data set with BL21-DE3 was found to be 34%. Also, in data set [2], the solubility result is recorded as “soluble”.

`COc1cnc(Cl)cc1C(=O)NNC(=O)c1c(OC)cc(OC)c2c(-c3ccc(Cl)cc3)c[nH]c12` gave an inhibition with BL21-DE3 of 28%. Moreover, the solubility entry in data set [2] is on record as “soluble”. Moreover, the inhibition of growth at 200 µM amounted to 26% in the data set on Escherichia coli [5] and 37% in the data set on Bacillus subtilis [3].

Compound `COc1cc(OC)c2c(-c3ccc(Br)cc3)c[nH]c2c1C(=O)NNC(=O)c1ccnc(Br)c1` came in with an inhibition with BL21-DE3 of 20%. Further, the solubility result in data set [2] was “soluble”. In addition, the “growth inhibition (GI)” value in the data set on Escherichia coli [5] is “inactive”. Further, the inhibition of growth at 200 µM in the data set with Bacillus subtilis [3] was 29%.

The term inhibition denotes the share of the control response that was lost under treatment. Read a low inhibition as little suppression.
